The values that follow come from patent publication US10058544B2, “(S)-N-(3-(6-isopropoxypyridin-3-yl)-1H-indazol-5-yl)-1-(2-(4-(4-(1-methyl-1H-1,2,4-triazol-3-yl)phenyl)-3,6-dihydropyridin-1(2H)-yl)-2-oxoethyl)-3-(methylthio)pyrrolidine-3-carboxamide compositions for pharmaceutical preparations” (Merck Sharp & Dohme Corp., priority 2014, dated 2018).

Data set [1] can be described thus: Physical form composition of active ingredient in tablets prepared using wet granulation. The format is physicochemical. Here is the method: Wet granulation of (S)—N-(3-(6-isopropoxypyridin-3-yl)-1H-indazol-5-yl)-1-(2-(4-(4-(1-methyl-1H-1,2,4-triazol-3-yl)phenyl)-3,6-dihydropyridin-1(2H)-yl)-2-oxoethyl)-3-(methylthio)pyrrolidine-3-carboxamide crystalline form 1 HCl was achieved using a high shear granulator. […] was alternatively achieved using a fluidized bed procedure.
Two tablets (1a and 1b) having the following amounts (weight %) of ingredients were prepared using wet granulation.
The following procedure was followed: • 1. Prepare a 20% binder solution by adding purified water and polyvinyl pyrrolidone K30 to a mixing vessel and stir until completely dissolved. • 2. Add lactose, microcrystalline cellulose (Avicel 102), (S)—N-(3-(6-isopropoxypyridin-3-yl)-1H-indazol-5-yl)-1-(2-(4-(4-(1-methyl-1H-1,2,4-triazol-3-yl)phenyl)-3,6-dihydropyridin-1(2H)-yl)-2-oxoethyl)-3-(methylthio)pyrrolidine-3-carboxamide crystalline form 1 HCl and a disintegrant (croscarmellose sodium or crospovidone) to a high shear granulator. • 3. Dry mix the ingredients using an impeller and chopper. • 4. Add the binder solution prepared in step 1 to the high shear granulator using a peristaltic pump and flexible tubing. • 5. Spray the binder solution to form wet granules. Additional mixing without spraying of the binder solution (also known as wet massing) may be used. • 6. Pass the wet granulation through a screen. • 7. Dry the granules using a tray dryer and dry heat. • 8. Pass the dried granules through a screen and add to a bin. • 9. Add extragranular disintegrant (croscarmellose sodium or crospovidone) to the materials in step 8 and blend. • 10. Add prescreened magnesium stearate lubricant to the bin and blend. • 11. Compress the lubricated blend resulting from step 10 using a suitable rotary tablet press. Fluidized Bed Granulation: • 1. Prepare a 20% binder solution by adding purified water and PVP K30 to a mixing vessel and stir until completely dissolved. • 2. Add lactose monohydrate, microcrystalline cellulose, (S)—N-(3-(6-isopropoxypyridin-3-yl)-1H-indazol-5-yl)-1-(2-(4-(4-(1-methyl-1H-1,2,4-triazol-3-yl)phenyl)-3,6-dihydropyridin-1(2H)-yl)-2-oxoethyl)-3-(methylthio)pyrrolidine-3-carboxamide crystalline form 1 HCl and croscarmellose sodium or crospovidone disintegrant to a fluid bed to form a mixture. • 3. Pre-heat the materials of step 2 using fluid air until the target bed temperature reaches 55°-60° C. • 4. Spray the binder solution prepared in step 1 onto the mixture resulting from step 2 to form wet granules. • 5. Fluidize and dry the wet granules resulting from step 4. • 6. Pass the dried granules through a screen and add to a bin • 7. Add extragranular croscarmellose sodium or crospovidone disintegrant to the dried granules and blend. • 8. Add prescreened magnesium stearate lubricant to the blend resulting from step 7 and blend. • 9. Compress the final lubricated blend using a suitable rotary tablet press.
(§1) “LOD” refers to “limit of detection” and “<LOD” means the amount of indicated material, if any, was not detectable.

Data set [2] is described as follows: Physical form composition of active ingredient in tablets prepared using roller compaction. It counts as physicochemical.
Description: (S)—N-(3-(6-isopropoxypyridin-3-yl)-1H-indazol-5-yl)-1-(2-(4-(4-(1-methyl-1H-1,2,4-triazol-3-yl)phenyl)-3,6-dihydropyridin-1(2H)-yl)-2-oxoethyl)-3-(methylthio)pyrrolidine-3-carboxamide crystalline form 1 HCl was subjected to roller compaction in order to create a granular composition for subsequent use in preparing tablets of (S)—N-(3-(6-isopropoxypyridin-3-yl)-1H-indazol-5-yl)-1-(2-(4-(4-(1-methyl-1H-1,2,4-triazol-3-yl)phenyl)-3,6-dihydropyridin-1(2H)-yl)-2-oxoethyl)-3-(methylthio)pyrrolidine-3-carboxamide crystalline form 1 HCl.
Three tablets (RC-1, RC-2 and RC-3) having the following amounts (weight %) of ingredients were prepared using roller compaction.
The following procedure was followed: • 1. Blend colloidal silicon dioxide and (S)—N-(3-(6-isopropoxypyridin-3-yl)-1H-indazol-5-yl)-1-(2-(4-(4-(1-methyl-1H-1,2,4-triazol-3-yl)phenyl)-3,6-dihydropyridin-1(2H)-yl)-2-oxoethyl)-3-(methylthio)pyrrolidine-3-carboxamide crystalline form 1 HCl in a blender. • 2. Delump the blend using a screen. • 3. Blend lactose monohydrate, microcrystalline cellulose (Avicel 102), and disintegrant (croscarmellose sodium or crospovidone) with the delumped materials from step 2 using a blender. • 4. Add prescreened magnesium stearate lubricant to the blend of step 3 and blend. • 5. Roller compact the blend resulting from step 4 • 6. Screen the roller compacted ribbons through a mesh and add the resulting milled granules to a suitable bin. • 7. Add prescreened extragranular magnesium stearate lubricant to the bin and blend with the milled granules. • 8. Compress the final lubricated blend resulting from step 7 using a suitable rotary tablet press.
as §1

Where [3] appears, read: wet granulation tablets, <LOD = not detectable.
Where [4] appears, read: wet granulation tablets, share of total active ingredient.
Where [5] appears, read: share of total active ingredient.

Molecules are shown by their SMILES. Counter-ions that a name gives are not always drawn. A value given as a limit tells only on which side of the number the result lay.

Consider `CS[C@@]1(C(=O)Nc2ccc3[nH]nc(-c4ccc(OC(C)C)nc4)c3c2)CCN(CC(=O)N2CC=C(c3ccc(-c4ncn(C)n4)cc3)CC2)C1` [F-1 HCl, (S)—N-(3-(6-isopropoxypyridin-3-yl)-1H-indazol-5-yl)-1-(2-(4-(4-(1-methyl-1H-1,2,4-triazol-3-yl)phenyl)-3,6-dihydropyridin-1(2H)-yl)-2-oxoethyl)-3-(methylthio)pyrrolidine-3-carboxamide crystalline form 1 HCl], for which the “disproportionation of crystalline form 1 HCl” value in data set [1] (wet granulation processing (high shear or fluidized bed)) is “no disproportionation”. Besides, in data set [1] (setting [3]), the “Am FB (amorphous free base) amount” value is on record as “LOD” and the “F-1 FB (crystalline form 1 free base) amount” value is “LOD”. Moreover, in data set [1] (setting [4]), the “Am HCl (amorphous HCl) amount” value is recorded as 7% and the “F-1 HCl (crystalline form 1 HCl) amount” value is 92%. Besides, the “F-1 FB (crystalline form 1 free base) amount” value in data set [2] (<LOD = not detectable) is “<LOD”. In data set [2] (setting [5]), the “Am FB (amorphous free base) amount” value is recorded as “<LOD”, the “Am HCl (amorphous HCl) amount” value came out at 7% and the “F-1 HCl (crystalline form 1 HCl) amount” value was found to be 92%.
